Measured values reported in patent US11230527B2, “Solid forms of 2-(5-(4-(2-morpholinoethoxy)phenyl)pyridin-2-yl)-n- benzylacetamide” (Athenex HK Innovative Limited, priority 2017, dated 2022).
≈ marks a conversion by molar mass, not a printed value. Like-named read-outs stand apart in the source and are kept apart here.

Experiments:
Assay type in all cases: physicochemical
[1] = HPLC chemical stability after storage at various conditions; details: for Area Percent at 248 nm T1 week: 1 week; for Area Percent at 248 nm T2 week: 2 weeks; for Area Percent at 248 nm T4 week: 4 weeks; for Area Percent at 248 nm T8 week: 8 weeks; for change in HPLC area percent purity (LCAP): selected storage conditions, time points over eight-week study
Experimental: High-performance Liquid Chromatography (HPLC) analysis was performed to determine the chemical stability of Forms A, B, and C of Compound A after storage at various conditions, using an Agilent 1100 system with DAD. Chemical stability was estimated by measuring and comparing the area percent of the material peak at various time points. For High-performance Liquid Chromatography (HPLC) analysis, an Agilent 1100 system with DAD was used.

[2] = XRPD physical form stability under storage conditions; details: up to eight weeks
Experimental: XRPD analysis is carried out using a diffractometer running in reflection mode. The 2-theta position is calibrated against a standard before running the experiment. XRPD analysis was carried out on a Panalytical X'Pert^3 Powder XRPD on a Si zero-background holder, scanning the samples between 3 and 40° 2-theta. The 2-theta position was calibrated against Panalytical 640 Si powder standard. The test material was gently compressed on a glass disc inserted into a sample holder. The sample was then loaded into a Panalytical X'Pert^3 Powder XRPD diffractometer running in reflection mode and analyzed, using the following experimental conditions.

[3] = Dynamic Vapor Sorption (DVS); details: for XRPD pattern after exposure to DVS experiment: 25° C. and RH up to 95%; for water uptake: between 0 and 80% RH at between 25° C. and 45° C.
Experimental: Dynamic Vapor Sorption (DVS) was measured using a SMS (Surface Measurement Systems) DVS Intrinsic. The test was performed at 25° C. while the RH was varied from 0% to 95% at 10% increments in the range of 0% RH-90% RH and at 5% increment up to 95% RH. The change in mass after each increase or decrease in the RH was recorded as a percentage of the original mass of the starting material. Dynamic Vapor Sorption (DVS) was measured using a SMS (Surface Measurement Systems) DVS Intrinsic, using the following parameters: [table]

Solubility estimation = assay: Solubility estimation
Experimental: Solubility of the solid forms of the present application in a variety of solvents is measured. Solvent is added to a sample until the total volume reaches 100 μL, followed by 100 μL per step until the sample is dissolved or the concentration is less than <1.0 mg/mL. The approximate solubility is then calculated.
Solubility of the solid forms of the present application in a variety of solvents was measured according to the following procedures. A sample (˜2 mg) was weighed into a 4-mL glass vial. Solvent was added into the vial stepwise at 50 μL per step until the total volume was 100 μL, followed by 100 μL per step until concentration was less than 1.0 mg/mL. The solutions were mixed thoroughly after each addition by sonication for 2 minutes and vortexing for 1 minute. The addition of solvent was complete if the sample was dissolved or the concentration was <1.0 mg/mL. The volumes of solvent (V1 and V2) were recorded, and approximate solubility was calculated.

Compound: O=C(Cc1ccc(-c2ccc(OCCN3CCOCC3)cc2)cn1)NCc1ccccc1 [Form B, 2-(5-(4-(2-morpholinoethoxy)phenyl)pyridin-2-yl)-N-benzylacetamide]
- Area Percent at 248 nm T1 week ([1]; 25° C./60% RH): 99.8 Area Percent
- Area Percent at 248 nm T2 week ([1]; 25° C./60% RH): 99.7 Area Percent
- Area Percent at 248 nm T4 week ([1]; 25° C./60% RH): 99.8 Area Percent
- Area Percent at 248 nm T8 week ([1]; 25° C./60% RH): 99.8 Area Percent
- Area Percent at 248 nm T0 ([1]; 25° C./60% RH): 99.8 Area Percent
- Area Percent at 248 nm T1 week ([1]; 40° C./75% RH): 99.8 Area Percent
- Area Percent at 248 nm T2 week ([1]; 40° C./75% RH): 99.8 Area Percent
- Area Percent at 248 nm T4 week ([1]; 40° C./75% RH): 99.7 Area Percent
- Area Percent at 248 nm T8 week ([1]; 40° C./75% RH): 99.8 Area Percent
- Area Percent at 248 nm T0 ([1]; 40° C./75% RH): 99.8 Area Percent
- Area Percent at 248 nm T1 week ([1]; 55° C./75% RH): 99.8 Area Percent
- Area Percent at 248 nm T2 week ([1]; 55° C./75% RH): 99.7 Area Percent
- Area Percent at 248 nm T4 week ([1]; 55° C./75% RH): 99.7 Area Percent
- Area Percent at 248 nm T8 week ([1]; 55° C./75% RH): 99.7 Area Percent
- Area Percent at 248 nm T0 ([1]; 55° C./75% RH): 99.8 Area Percent
- Area Percent at 248 nm T1 week ([1]; Ambient): 99.8 Area Percent
- Area Percent at 248 nm T2 week ([1]; Ambient): 99.7 Area Percent
- Area Percent at 248 nm T4 week ([1]; Ambient): 99.8 Area Percent
- Area Percent at 248 nm T8 week ([1]; Ambient): 99.8 Area Percent
- Area Percent at 248 nm T0 ([1]; Ambient): 99.8 Area Percent
- change in HPLC area percent purity (LCAP) [1]: no significant decrease
- change in physical form (XRPD) ([2]; 25° C./60% RH): no change in physical form
- change in physical form (XRPD) ([2]; 40° C./75% RH): no change in physical form
- change in physical form (XRPD) ([2]; 55° C./75% RH): no change in physical form
- change in physical form (XRPD) ([2]; ambient conditions): no change in physical form
- hygroscopicity [3]: non-hygroscopic
- XRPD pattern after exposure to DVS experiment [3]: does not change
- water uptake [3]: less than 0.2 % w/w
- thermodynamic aqueous solubility (Solubility estimation; aqueous): below 1.5 mg/ml
- aqueous solubility (dissolved completely) (Solubility estimation; aqueous solution (e.g., water), room temperature): > 20000 µg/mL

Compound: O=C(Cc1ccc(-c2ccc(OCCN3CCOCC3)cc2)cn1)NCc1ccccc1 [Form C, 2-(5-(4-(2-morpholinoethoxy)phenyl)pyridin-2-yl)-N-benzylacetamide]
- Area Percent at 248 nm T1 week ([1]; 25° C./60% RH): 99.9 Area Percent
- Area Percent at 248 nm T2 week ([1]; 25° C./60% RH): 99.9 Area Percent
- Area Percent at 248 nm T4 week ([1]; 25° C./60% RH): 99.8 Area Percent
- Area Percent at 248 nm T8 week ([1]; 25° C./60% RH): 99.9 Area Percent
- Area Percent at 248 nm T0 ([1]; 25° C./60% RH): 99.8 Area Percent
- Area Percent at 248 nm T1 week ([1]; 40° C./75% RH): 99.8 Area Percent
- Area Percent at 248 nm T2 week ([1]; 40° C./75% RH): 99.8 Area Percent
- Area Percent at 248 nm T4 week ([1]; 40° C./75% RH): 99.9 Area Percent
- Area Percent at 248 nm T8 week ([1]; 40° C./75% RH): 99.9 Area Percent
- Area Percent at 248 nm T0 ([1]; 40° C./75% RH): 99.8 Area Percent
- Area Percent at 248 nm T1 week ([1]; 55° C./75% RH): 99.9 Area Percent
- Area Percent at 248 nm T2 week ([1]; 55° C./75% RH): 99.8 Area Percent
- Area Percent at 248 nm T4 week ([1]; 55° C./75% RH): 99.8 Area Percent
- Area Percent at 248 nm T8 week ([1]; 55° C./75% RH): 99.9 Area Percent
- Area Percent at 248 nm T0 ([1]; 55° C./75% RH): 99.8 Area Percent
- Area Percent at 248 nm T1 week ([1]; Ambient): 99.8 Area Percent
- Area Percent at 248 nm T2 week ([1]; Ambient): 99.8 Area Percent
- Area Percent at 248 nm T4 week ([1]; Ambient): 99.8 Area Percent
- Area Percent at 248 nm T8 week ([1]; Ambient): 99.9 Area Percent
- Area Percent at 248 nm T0 ([1]; Ambient): 99.8 Area Percent
- change in HPLC area percent purity (LCAP) [1]: no significant decrease
- change in physical form (XRPD) ([2]; 25° C./60% RH): no change in physical form
- change in physical form (XRPD) ([2]; 40° C./75% RH): no change in physical form
- change in physical form (XRPD) ([2]; 55° C./75% RH): no change in physical form
- change in physical form (XRPD) ([2]; ambient conditions): no change in physical form
- hygroscopicity [3]: non-hygroscopic
- XRPD pattern after exposure to DVS experiment [3]: does not change
- water uptake [3]: less than 0.2 % w/w
- solubility (Solubility estimation; 1,4-Dioxane, organic solvent or mixture, thermodynamic from solid, 1,4-Dioxane, read-out: Solubility): 12600 to 25100 µg/mL (≈ 29.2 to 58.2 mM)
- solubility (Solubility estimation; 2-MeTHF, organic solvent or mixture, thermodynamic from solid, 2-MeTHF, read-out: Solubility): 5100 to 6380 µg/mL (≈ 11.8 to 14.8 mM)
- solubility (Solubility estimation; ACN, organic solvent or mixture, thermodynamic from solid, ACN, read-out: Solubility): 4430 to 5540 µg/mL (≈ 10.3 to 12.8 mM)
- solubility (Solubility estimation; Acetone, organic solvent or mixture, thermodynamic from solid, Acetone, read-out: Solubility): 5690 to 8590 µg/mL (≈ 13.2 to 19.9 mM)
- solubility (Solubility estimation; CHCl3, organic solvent or mixture, thermodynamic from solid, CHCl3, read-out: Solubility): 25900 to 51800 µg/mL (≈ 60 to 120 mM)
- solubility (Solubility estimation; DCM, organic solvent or mixture, thermodynamic from solid, DCM, read-out: Solubility): 1330 to 1440 µg/mL (≈ 3.08 to 3.34 mM)
- solubility (Solubility estimation; EtOAc, organic solvent or mixture, thermodynamic from solid, EtOAc, read-out: Solubility): 2370 to 2630 µg/mL (≈ 5.49 to 6.09 mM)
- solubility (Solubility estimation; EtOH, organic solvent or mixture, thermodynamic from solid, EtOH, read-out: Solubility): 5140 to 6420 µg/mL (≈ 11.9 to 14.9 mM)
- solubility (Solubility estimation; H2O, water, thermodynamic from solid, H2O, read-out: Solubility): < 1000 µg/mL
- solubility (Solubility estimation; IPA, organic solvent or mixture, thermodynamic from solid, IPA, read-out: Solubility): 1300 to 1390 µg/mL (≈ 3.01 to 3.22 mM)
- solubility (Solubility estimation; IPAc, organic solvent or mixture, thermodynamic from solid, IPAc, read-out: Solubility): 1080 to 1150 µg/mL (≈ 2.5 to 2.66 mM)
- solubility (Solubility estimation; MIBK, organic solvent or mixture, thermodynamic from solid, MIBK, read-out: Solubility): 1610 to 1760 µg/mL (≈ 3.73 to 4.08 mM)
- solubility (Solubility estimation; MTBE, heated to 50° C.): soluble
- solubility (Solubility estimation; MTBE, organic solvent or mixture, thermodynamic from solid, MTBE, read-out: Solubility): < 1000 µg/mL
- solubility (Solubility estimation; MTBE, room temperature): insoluble
- solubility (Solubility estimation; MeOH, organic solvent or mixture, thermodynamic from solid, MeOH, read-out: Solubility): 9580 to 19200 µg/mL (≈ 22.2 to 44.4 mM)
- solubility (Solubility estimation; THF, organic solvent or mixture, thermodynamic from solid, THF, read-out: Solubility): 11000 to 22000 µg/mL (≈ 25.5 to 51 mM)
- solubility (Solubility estimation; n-Heptane, organic solvent or mixture, thermodynamic from solid, n-Heptane, read-out: Solubility): < 1000 µg/mL
- solubility (Solubility estimation; n-heptane, organic solvent or mixture, thermodynamic from solid, n-heptane, room temperature and when heated to 50° C., read-out: Solubility): < 1000 µg/mL
- solubility (Solubility estimation; organic solvent or mixture, thermodynamic from solid, methanol, ethanol, isopropanol, acetone, MIBK, ethyl acetate, isopropyl acetate, tetrahydrofuran, 2-Me-THF, 1,4-dioxane, acetonitrile, dichloromethane, chloroform, toluene, room temperature and 50° C., read-out: Solubility): > 1000 µg/mL
- solubility (Solubility estimation; toluene, organic solvent or mixture, thermodynamic from solid, toluene, read-out: Solubility): 1510 to 1610 µg/mL (≈ 3.5 to 3.73 mM)
- solubility (Solubility estimation; water, thermodynamic from solid, aqueous solution (water), room temperature and when heated to 50° C., read-out: Solubility): < 1000 µg/mL
